Data published in patent US20190062305A1, “PYRIDYL OR PYRAZINYL COMPOUNDS CARRYING A METHYL-BOUND ALPHA-AMINO ACID AMIDE GROUP” (ABBVIE DEUTSCHLAND GMBH & CO. KG, priority 2015, published 2019).
Where a name gives a salt, the structure may show the parent alone. Read-outs that look alike come from different tables or passages of the source.

Tests used:
5-HT2C receptor = molecular target: T1, 5-HT2C receptor (Homo sapiens, UniProt P28335); assay: Human 5-HT2C functional assay (beta-arrestin2 recruitment, U2OS_HTR2C_β-Arrestin cells); assay type: cell-based; conditions: for EC50: beta-arrestin2 recruitment, U2OS_HTR2C_β-Arrestin cells, 1.5 h incubation, read-out: EC50 5-HT2C (potency in functional assay); for Emax: relative efficacy vs response to 10 μM 5-HT or maximal 5-HT effect (100%)
T1 construct: host or cells: U2OS
In short: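 U2OS cells expressing HTR2C with β-galactosidase complementation, switched to 1% serum medium 24 h post-plating, were treated next day with compound for 1.5 h; chemiluminescence read. Response expressed as % of 10 µM 5-HT or maximal 5-HT effect; EC50 from 4-parameter variable-slope fit.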

[1] = Metabolic stability in human liver microsomes, unbound intrinsic clearance (Cl int/fu mic); assay type: in vitro ADME; conditions: pH 7.4, human liver microsomes 0.25 mg/mL, 0.5 μM compound, NADPH, read-out: Cl int, mic unb. (h) [l/h/kg] (unbound intrinsic clearance, human)
In short: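 Compound (0.5 µM) was incubated with human liver microsomes (0.25 mg/mL) in pH 7.4 phosphate buffer at 37 °C with 1.0 mM NADPH, sampling from 0–30 min. Depletion was followed by LC-MS/MS, and CLint was derived from first-order t1/2 per mg protein. Microsomal unbound fraction came from 4 h equilibrium dialysis at 37 °C, giving CLint/fu mic.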

T1 sequence (P28335 33-458): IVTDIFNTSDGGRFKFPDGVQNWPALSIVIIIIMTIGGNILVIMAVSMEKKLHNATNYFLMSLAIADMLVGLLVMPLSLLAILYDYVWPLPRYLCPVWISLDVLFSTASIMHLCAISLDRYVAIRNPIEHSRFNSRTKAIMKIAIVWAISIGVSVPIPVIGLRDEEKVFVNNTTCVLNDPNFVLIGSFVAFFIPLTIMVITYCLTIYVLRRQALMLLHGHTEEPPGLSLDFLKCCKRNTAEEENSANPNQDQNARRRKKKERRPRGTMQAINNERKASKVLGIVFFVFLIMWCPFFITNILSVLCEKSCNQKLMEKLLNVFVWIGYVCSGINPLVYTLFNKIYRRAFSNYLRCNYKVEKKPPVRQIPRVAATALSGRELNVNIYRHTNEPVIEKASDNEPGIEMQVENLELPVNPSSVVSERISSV
T1 sequence (P32121 whole entry partner): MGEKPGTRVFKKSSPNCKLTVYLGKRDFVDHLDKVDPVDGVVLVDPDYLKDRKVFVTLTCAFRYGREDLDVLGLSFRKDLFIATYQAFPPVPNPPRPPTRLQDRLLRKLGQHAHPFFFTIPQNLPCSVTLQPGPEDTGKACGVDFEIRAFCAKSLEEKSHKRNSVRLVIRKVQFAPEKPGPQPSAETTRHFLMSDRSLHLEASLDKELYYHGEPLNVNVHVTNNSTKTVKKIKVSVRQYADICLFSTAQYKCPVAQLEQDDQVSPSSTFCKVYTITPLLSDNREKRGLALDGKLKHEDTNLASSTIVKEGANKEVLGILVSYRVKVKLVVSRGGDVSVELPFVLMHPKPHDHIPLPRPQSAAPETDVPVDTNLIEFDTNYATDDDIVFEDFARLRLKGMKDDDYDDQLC

Row | Structure (SMILES) | EC50 (5-HT2C receptor) | Emax (5-HT2C receptor) | CLint scaled at 0.5 μM [1] | CLint scaled at 0.5 μM ([1]; human, liver microsomes)
1 | COc1nc(N2CCCC3(C2)CC3(F)F)c(F)cc1CNC(=O)[C@@H]1CCCN1 (stereo partly drawn) [Example 188, (2S)—N-[[6-(2,2-Difluoro-7-azaspiro[2.5]octan-7-yl)-5-fluoro-2-methoxy-3-pyridyl]methyl]pyrrolidine-2-carboxamide; 2,2,2-trifluoroacetic Acid] | 0.02 to 0.2 µM | > 70% | 5 to 50 L/h/kg | –
2 | COc1nc(CC2CCOCC2)c(F)cc1CNC(=O)[C@@H]1CCCN1 [Example 189, (2S)—N-[[5-Fluoro-2-methoxy-6-(tetrahydropyran-4-ylmethyl)-3-pyridyl]methyl]-pyrrolidine-2-carboxamide; 2,2,2-trifluoroacetic Acid] | 0.2 to 1 µM | 50 to 70% | – | < 5 L/h/kg
3 | COc1nc(N2CCC(F)(F)C(C(F)F)C2)c(F)cc1CNC(=O)[C@@H]1CCCN1 (stereo partly drawn) [Example 190, (2S)—N-[[6-[3-(Difluoromethyl)-4,4-difluoro-1-piperidyl]-5-fluoro-2-methoxy-3-pyridyl]methyl]pyrrolidine-2-carboxamide Hydrochloride] | < 0.02 µM | > 70% | – | < 5 L/h/kg
4 | COc1nc(C(F)(F)Cc2ccccc2)c(F)cc1CN(C)C(=O)[C@@H]1CCCN1 [Example 191, (2S)—N-[[6-(1,1-Difluoro-2-phenyl-ethyl)-5-fluoro-2-methoxy-3-pyridyl]methyl]-N-methyl-pyrrolidine-2-carboxamide Hydrochloride] | 0.2 to 1 µM | 30 to 50% | – | 5 to 50 L/h/kg
5 | COCCCCc1nc(OC)c(CNC(=O)[C@@H]2CCCN2)cc1F [Example 193, (2S)—N-[[5-Fluoro-2-methoxy-6-(4-methoxybutyl)-3-pyridyl]methyl]pyrrolidine-2-carboxamide] | 0.2 to 1 µM | > 70% | – | < 5 L/h/kg
6 | COc1nc(N2CC(Cc3ccccc3)C2)c(F)cc1CNC(=O)[C@@H]1CCCN1 [Example 194, (2S)—N-[[6-(3-Benzylazetidin-1-yl)-5-fluoro-2-methoxy-3-pyridyl]methyl]-pyrrolidine-2-carboxamide] | 0.02 to 0.2 µM | > 70% | – | 50 to 500 L/h/kg
7 | COc1nc(N2CCC(Oc3ccccc3)CC2)c(F)cc1CNC(=O)[C@@H]1CCCN1 [Example 195, (2S)—N-[[5-Fluoro-2-methoxy-6-(4-phenoxy-1-piperidyl)-3-pyridyl]methyl]-pyrrolidine-2-carboxamide; 2,2,2-trifluoroacetic Acid] | 0.02 to 0.2 µM | > 70% | – | 50 to 500 L/h/kg
